The test system of one data set is ‘Gala’ apple trees. Description: Thinning and phytotoxicity of lipid, copper and their mixture (Example 5). The format is in vivo. The conditions noted are these: for Russet / Leaf damage / Thinning: ‘Gala’ apples, aqueous cupric sulfate, sprayed at 5% FB; for Russet: fruit russet at harvest. Here is the method:
Emulsion was prepared with glyceride type of lipids as in Example 2 and diluted to 2% active ingredients. Cupric sulfate was added to the diluted emulsion to give mixtures containing 0, 50, 100, and 150 g metallic copper per 100 L, respectively. Aqueous solutions containing 0, 50, 100, and 150 g metallic copper per 100 L were also prepared seperately. Emulsion and copper mixtures or cupric sulfate solutions were sprayed on 12 year-old ‘Gala’ apple trees at 5% FB. Each treatment consisted of 4 trees (replications) in a row (oriented from south to north) and 2 shoots (one from the east and another from the west side of the canopy) were selected from each of the 4 trees for evaluation. Fruit set was measured 2 months after FB and leaf damage were evaluated 1, 2, and 3 weeks after application. Fruit russet was assessed at harvest and return of bloom was evaluated the following season.

The next data set has as its system peach trees. The conditions noted are these: cited from earlier work.
The subject of a further data set is ‘Delicious’ apple. In words: Lipids and surfactants for bloom thinning, fruit set and leaf bud damage (Example 4). The conditions noted are these: applied at 5% full bloom. In kind it is in vivo.
Another data set has as its system ‘Bing’ cherry trees. The description is as above. The format is in vivo. The conditions noted are these: sprayed at 5% full bloom. From the text: (§1) […] Each treatment (plot) consisted of 4 trees, which received standard commercial management both before and after oil application.
A further data set deals with ‘Feng Huang’ peach. Described as above. In kind it is in vivo. The conditions noted are these: applied at 5% full bloom.
Excerpt: as §1

In data set [1] the test system is ‘Feng Huang’ peaches, ‘Delicious’ apples, and ‘Bing’ cherries. Description: Lipids and surfactants for bloom thinning, all cultivars of Example 4. In kind it is in vivo. The conditions noted are these: for damage to leaf buds: surfactant alone at 0.6% or 1%; for thinning effect: surfactant alone at the application rate (0.2%, 0.6%, 1%), sprayed at 5% full bloom. From the text: Fruit trees of ‘Feng Huang’ peaches, ‘Delicious’ apples, and ‘Bing’ cherries all were sprayed at 5% full bloom. Each treatment (plot) consisted of 4 trees, which received standard commercial management both before and after oil application.

Read-outs that look alike come from different tables or passages of the source.

`O=S(=O)([O-])[O-].[Cu+2]` [Cupric sulfate]: the thinning and phytotoxicity result in the data set on ‘Gala’ apple trees (‘Gala’ apple, 50, 100, 150 g metallic copper per 100 L) is “both thinning and phytotoxicity in a concentration dependent manner”. In addition, in the data set with ‘Gala’ apple trees (50 g metallic copper/100 L), the Russet amounted to 0%, the Leaf damage turned out to be 0% and the Thinning was determined as 87%. Further, in the data set on ‘Gala’ apple trees (100 g metallic copper/100 L), the Russet was determined as 35%, the Leaf damage is on record as 9% and the Thinning turned out to be 64%. In the data set on ‘Gala’ apple trees (150 g metallic copper/100 L), the Russet is given as 64%, the Leaf damage was determined as 24% and the Thinning came out at 43%.
For “N,N-bis 2-[omega (hydroxypolyoxyethylene/polyoxypropylene)ethyl alkylamine] [Armothin]”, the thinning effect result with peach trees (1%) is recorded as “not effective thinners”.
For TRITON X-100, the Fruit set was determined as 62% in the data set on ‘Delicious’ apple (surfactant solution 0.2%); 64% in the data set with ‘Delicious’ apple (surfactant solution 0.6%); 69% with ‘Delicious’ apple (surfactant solution 1.0%); 94% with ‘Bing’ cherry trees (surfactant solution 0.2%); 83% with ‘Bing’ cherry trees (surfactant solution 0.6%); 90% with ‘Bing’ cherry trees (surfactant solution 1.0%). Moreover, the figures for the Fruit set in the data set with ‘Feng Huang’ peach (surfactant solution 0.2%), in the data set on ‘Feng Huang’ peach (surfactant solution 0.6%) and in the data set on ‘Feng Huang’ peach (surfactant solution 1.0%) were 41%, 42% and 38%, respectively. Besides, the leaf bud damage is 0% in the data set on ‘Delicious’ apple (surfactant solution 0.2%); 8% in the data set with ‘Delicious’ apple (surfactant solution 0.6%); 15% in the data set with ‘Delicious’ apple (surfactant solution 1.0%); 0% with ‘Bing’ cherry trees (surfactant solution 0.2%); 10% in the data set on ‘Bing’ cherry trees (surfactant solution 0.6%); 18% in the data set on ‘Bing’ cherry trees (surfactant solution 1.0%). Besides, the leaf bud damage in the data set with ‘Feng Huang’ peach (surfactant solution 0.2%) was found to be 0%; with ‘Feng Huang’ peach (surfactant solution 0.6%) it was 6%; in the data set with ‘Feng Huang’ peach (surfactant solution 1.0%) it was 20%. For the same compound, in data set [1], the “damage to leaf buds” value was “caused some damage to leaf buds”. Moreover, the thinning effect entry in data set [1] is listed as “not effective in thinning”.
Turning to TWEEN 60, the Fruit set is 58% with ‘Delicious’ apple (surfactant solution 0.2%); 65% in the data set on ‘Delicious’ apple (surfactant solution 0.6%); 61% in the data set on ‘Delicious’ apple (surfactant solution 1.0%); 96% in the data set on ‘Bing’ cherry trees (surfactant solution 0.2%); 92% in the data set with ‘Bing’ cherry trees (surfactant solution 0.6%); 87% in the data set with ‘Bing’ cherry trees (surfactant solution 1.0%). Moreover, the Fruit set came out at 46% in the data set with ‘Feng Huang’ peach (surfactant solution 0.2%), 42% in the data set on ‘Feng Huang’ peach (surfactant solution 0.6%) and 38% with ‘Feng Huang’ peach (surfactant solution 1.0%). Also, the leaf bud damage with ‘Delicious’ apple (surfactant solution 0.2%) stood at 0%; in the data set on ‘Delicious’ apple (surfactant solution 0.6%), 7%; with ‘Delicious’ apple (surfactant solution 1.0%), 13%; with ‘Bing’ cherry trees (surfactant solution 0.2%) it was 0%; in the data set with ‘Bing’ cherry trees (surfactant solution 0.6%), 8%; in the data set with ‘Bing’ cherry trees (surfactant solution 1.0%) it was 17%. The results for the leaf bud damage with ‘Feng Huang’ peach (surfactant solution 0.2%), in the data set on ‘Feng Huang’ peach (surfactant solution 0.6%) and with ‘Feng Huang’ peach (surfactant solution 1.0%) were 0%, 5% and 18%, respectively. Further, in data set [1], the “damage to leaf buds” value was “caused some damage to leaf buds”. The thinning effect entry in data set [1] is “not effective in thinning”.
Regarding alkaryl polyoxyethylene alcohols, the thinning effect entry in the data set on peach trees (2%) is listed as “not effective thinners”.

The record behind these values is patent US20010039246A1, “Composition and method for early bloom thinning of fruit trees and controlling cracking of fruits” (priority 2000, published 2001).
